PMC7901654, “Bioisosteric Discovery of NPA101.3, a Second-Generation RET/VEGFR2 Inhibitor Optimized for Single-Agent Polypharmacology” (Journal of Medicinal Chemistry, 2020)

Columns and labels:
hERG = molecular target: T1, hERG (Homo sapiens, UniProt Q12809); test: hERG patch-clamp assay; assay type: cell-based
T1 construct: host or cells: HEK293, tetracycline-inducible hERG

NIH3T3 HRAS/G12V cells = test: Phosphorylation and signalling Western blot in NIH3T3 HRAS/G12V cells; assay type: cell-based; settings: up to a dose of 100.0 nM
Procedure: Protein lysates were prepared according to standard procedures. Briefly, cells were lysed in a buffer containing 50 mM N-2-hydroxyethylpiperazine-N′-2-ethanesulfonic acid (HEPES; pH 7.5), 1% (v/v) Triton X-100, 150 mM NaCl, 5 mM EGTA, 50 mM NaF, 20 mM sodium pyrophosphate, 1 mM sodium vanadate, 2 mM phenylmethanesulfonyl fluoride (PMSF), and 1 μg/mL aprotinin. Lysates were clarified by centrifugation at 10000g for 15 min. […] Immune complexes were detected with the enhanced chemiluminescence kit (Amersham Pharmacia Biotech, Little Chalfont, U.K.). Anti-phospho-SHC (#Y317), which recognizes SHC protein when phosphorylated on Y317, was from Upstate Biotechnology Inc. (Lake Placid, NY). Anti-SHC (H-108) was from Santa Cruz Biotechnology (Santa Cruz, CA). Anti-MAPK (9101) and anti-phospho-MAPK (9102), specific for p42/44MAPK (ERK1/2) phosphorylated on Thr202/Tyr204, antibodies were from Cell Signaling Technologies (Danvers, MA). Anti-phospho-VEGFR2/KDR (2478), specific for VEGFR2/KDR phosphorylated on Tyr1175, and anti-VEGFR2/KDR (2479) were from Cell Signaling Technologies. Anti-phospho-p70S6K (9234), specific for p70S6K phosphorylated on Thr389, and anti-p70S6K (2708) were from Cell Signaling Technologies. […]

NIH3T3 RET/C634Y tumors = assay type: in vivo
Procedure: In vivo target (RET and VEGFR2) inhibition was studied by treating animals grafted with NIH3T3 RET/C634Y cells at different doses (0.3, 1, or 3 mg/kg/day p.o.) of NPA101.3 for 2 days and then performing Western blot analysis on protein extracts. […] Then, to determine antitumorigenic activity and to better distinguish RET- and VEGFR2-mediated effects, we tested NPA101.3 in nude mice transplanted with NIH3T3 cells transformed by either RET/C634Y or HRAS/G12V. Before tumors appeared, animals were treated daily with NPA101.3 (1.0, 3.0, or 10.0 mg/kg/day) or left untreated. […] Still, VEGFR2 inhibition was detected also in RAS-driven tumors, an effect that might explain the, albeit reduced, effect of the drug on their growth (Figure S13). Importantly, as predicted, no trace of NPA101.3 demethyl metabolites was detected after 1 or 4 h from oral dosing in mice (Figure S14).
Figure 6 Effects of NPA101.3 on in vivo tumor growth. NIH3T3 cells transformed by RET/C634Y or HRAS/G12V were inoculated subcutaneously into nu/nu mice. After 4 days, animals were randomly assigned to receive for the indicated time periods the compound (1.0, 3.0, or 10 mg/kg/day) (24 mice; 8 mice/group for 1, 3, and 10 mg/kg doses) or vehicle (8 mice) by oral gavage. The average size of tumors is reported ± SD.
NPA101.3 was dissolved in 80% H2O, 19.875% Tween 20, and 0.125% xanthan gum. The formulation was stored at room temperature and vortexed prior to administration. NIH3T3 RET/C634Y (200000) or NIH3T3 HRAS/G12V (50000) cells were inoculated subcutaneously into the dorsal portion (both sides) of 6-week-old female BALB/c nu/nu mice (32 mice/cell line) (Jackson Laboratories, Bar Harbor, ME). After 4 days, before tumors had appeared, animals were randomly assigned to receive NPA101.3 (1.0, 3.0, or 10 mg/kg/day) (8 mice/group) or vehicle control (8 mice) by oral gavage. Tumor diameters were measured with caliper every 2–3 days. Tumor volumes (V) were calculated by the rotational ellipsoid formula V = A × B^2/2 (A is the axial diameter, and B is the rotational diameter). […] Animals were fed ad libitum on an autoclaved diet and tap water and maintained at the Dipartimento di Medicina Molecolare e Biotecnologie Mediche Animal Facility. All manipulations were performed while the animals were under isoflurane gas anesthesia. Animal studies were conducted in accordance with Italian regulations for experimentation on animals and approved by the Italian Ministry of Health (Authorization 1023/2015-PR). To compare tumor growth, an unpaired Student’s t test (InStat program, GraphPad Software) was used. P values were statistically significant at the P < 0.05 level. […]

T1 sequence (Q12809 whole entry): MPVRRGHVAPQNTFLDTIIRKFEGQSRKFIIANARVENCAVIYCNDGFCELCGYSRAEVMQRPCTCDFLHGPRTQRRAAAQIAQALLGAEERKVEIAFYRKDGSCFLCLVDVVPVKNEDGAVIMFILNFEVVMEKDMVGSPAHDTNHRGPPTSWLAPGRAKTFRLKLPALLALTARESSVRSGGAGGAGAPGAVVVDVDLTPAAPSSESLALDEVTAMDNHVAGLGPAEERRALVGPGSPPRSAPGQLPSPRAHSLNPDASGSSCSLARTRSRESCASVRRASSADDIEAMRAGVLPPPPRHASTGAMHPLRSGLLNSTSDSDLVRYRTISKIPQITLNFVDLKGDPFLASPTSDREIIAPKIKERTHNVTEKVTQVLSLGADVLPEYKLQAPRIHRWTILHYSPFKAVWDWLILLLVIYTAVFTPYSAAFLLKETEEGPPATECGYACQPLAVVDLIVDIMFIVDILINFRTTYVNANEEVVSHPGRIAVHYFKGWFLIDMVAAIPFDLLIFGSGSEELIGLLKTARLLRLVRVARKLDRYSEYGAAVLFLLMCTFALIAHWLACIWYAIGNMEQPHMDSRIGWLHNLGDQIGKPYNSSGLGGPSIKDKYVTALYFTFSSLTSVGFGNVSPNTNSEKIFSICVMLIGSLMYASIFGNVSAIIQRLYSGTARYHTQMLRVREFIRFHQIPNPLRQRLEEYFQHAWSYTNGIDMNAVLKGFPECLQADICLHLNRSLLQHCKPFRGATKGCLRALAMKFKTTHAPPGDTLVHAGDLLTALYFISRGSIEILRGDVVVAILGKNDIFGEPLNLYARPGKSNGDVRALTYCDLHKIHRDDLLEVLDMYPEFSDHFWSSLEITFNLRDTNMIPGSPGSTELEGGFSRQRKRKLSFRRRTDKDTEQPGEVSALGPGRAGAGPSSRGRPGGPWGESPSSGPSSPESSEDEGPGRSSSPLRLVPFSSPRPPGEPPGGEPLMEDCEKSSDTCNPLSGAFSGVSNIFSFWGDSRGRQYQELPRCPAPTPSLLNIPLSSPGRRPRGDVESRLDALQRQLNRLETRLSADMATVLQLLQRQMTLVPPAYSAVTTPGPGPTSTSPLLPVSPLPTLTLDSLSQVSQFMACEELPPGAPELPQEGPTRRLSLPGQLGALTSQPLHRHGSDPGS

SMILES: CC(C)(C)c1cc(NC(=O)Cc2ccc(-n3cnc4cc(-c5ccc(S(C)(=O)=O)cc5)ccc43)cc2)no1 [NPA101.3]
- hERG IC50 relative to RET IC50 (hERG; hERG 7.57 μM vs RET 1 nM): > 7000 fold
- inhibition at 0.1 µM (hERG; human, HEK293 cells expressing inducible hERG, 0.1 µM): 0.41%
- inhibition at 1 µM (hERG; human, HEK293 cells expressing inducible hERG, 1 µM): 14.6%
- inhibition at 10 µM (hERG; human, HEK293 cells expressing inducible hERG, 10 µM): 55.9%
- effect on phosphorylation/signalling (NIH3T3 HRAS/G12V cells): virtually no effect
- RET phosphorylation and signaling in NIH3T3 RET/C634Y tumors (NIH3T3 RET/C634Y tumors; 1.0 mg/kg, 3 h after last dose): strong RET phosphorylation and signaling inhibition
- tumor formation induced by RET/C634Y-transformed cells (NIH3T3 RET/C634Y tumors; 10 mg/kg/day oral, nu/nu mice, treatment before tumors appeared): completely prevented
- rate of growth of RET-driven tumors (NIH3T3 RET/C634Y tumors; lower doses (1.0, 3.0 mg/kg/day) oral): significantly reduced
- signs of wasting or toxicity in xenograft mice (NIH3T3 RET/C634Y tumors; mouse, in vivo): No mouse showed signs of wasting or other signs of toxicity
